Reference: PMC3781954 (Archives of biochemistry and biophysics, 2013)

Experiments:
[1] = target: T1, Rabbit CYP2E1 (Oryctolagus cuniculus, UniProt P08682); assay: Inhibition of 4-nitrophenol oxidation to 4-nitrocatechol by reconstituted CYP2E1; settings: for fold more potent than pyrazole: inhibition of CYP2E1 4-nitrophenol metabolism; for Inhibition Mechanism: most probable mechanism by DynaFit model discrimination, substrate 4-nitrophenol; for kcat2: turnover of the ESI complex, 95% confidence intervals in parentheses
[2] = target: T1, Rabbit CYP2E1; assay: Spectral binding studies; settings: for fold increase in affinity (Kd) relative to pyrazole: catalytic site
[3] = target: CYP2E1 (Oryctolagus cuniculus, UniProt P08682); assay: Spectral binding studies; parameters: species or system rabbit; settings: rabbit, pH 7.4
[4] = tested on: CYP2E1; settings: positive cooperativity; ref [4], [6]; cited from earlier work

T1 sequence (P08682 whole entry): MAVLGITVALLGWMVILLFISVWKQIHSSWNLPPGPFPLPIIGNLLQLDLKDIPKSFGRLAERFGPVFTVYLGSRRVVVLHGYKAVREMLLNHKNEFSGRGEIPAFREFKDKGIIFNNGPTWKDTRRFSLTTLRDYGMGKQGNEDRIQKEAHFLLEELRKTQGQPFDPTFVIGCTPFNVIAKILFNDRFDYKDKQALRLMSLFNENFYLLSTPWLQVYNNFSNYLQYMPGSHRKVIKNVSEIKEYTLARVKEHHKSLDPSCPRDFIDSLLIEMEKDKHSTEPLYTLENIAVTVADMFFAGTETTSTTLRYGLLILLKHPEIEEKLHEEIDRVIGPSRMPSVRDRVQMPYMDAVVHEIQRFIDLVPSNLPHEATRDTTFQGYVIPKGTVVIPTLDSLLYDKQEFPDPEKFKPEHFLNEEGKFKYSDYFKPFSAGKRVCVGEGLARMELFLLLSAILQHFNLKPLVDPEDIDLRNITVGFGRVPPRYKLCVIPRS
Sequence of CYP2E1 (Oryctolagus cuniculus, UniProt P08682) (P08682 whole entry): as above

Row | SMILES | Inhibition Mechanism [1] | kcat2 [1] | Kd [2] | also measured
1 | Cc1cc(C)[nH]n1 [3,5-dimethylpyrazole] | – | – | – | inhibition of the 4-nitrophenol reaction ([1]; concentration as high as 250 µM (data not shown)): no inhibition; spectral shift upon binding ([2]; concentrations as high as 1000 µM): did not induce a spectral
2 | CCOc1ccc2ccc(=O)oc2c1 [7-ethoxycoumarin] | – | – | – | Hill coefficient [4]: 1.6
3 | c1ccc2[nH]ncc2c1 [indazole] | Mixed, coop. substrate | 11 (9.0 to 13) min^−1 | – | fold more potent than pyrazole [1]: more than 200 fold; fold increase in affinity relative to tetrahydroindazole ([2]; spectral binding, aromatization of the second ring): about five-fold
4 | Cc1cccc(C)c1 [m-xylene] | – | – | – | Hill coefficient [4]: 1.4
5 | c1cn[nH]c1 [pyrazole] | Mixed, coop. substrate | – | – | –

More lines, main results first:

Row | Inhibition Mechanism [1] | kcat2 [1] | Kd [2] | SMILES | also measured
6 | Mixed, coop. substrate | 6.6 (2.3 to 9.6) min^−1 | – | c1n[nH]c2c1CCCC2 | fold more potent than pyrazole [1]: 100 fold; fold increase in affinity (Kd) relative to pyrazole ([2]; spectral binding): 800 fold
7 | Mixed, coop. substrate | 8.7 (7.0 to 10) min^−1 | 11 µM | Cc1cc[nH]n1 [3-methylpyrazole] | fold higher affinity for the free enzyme than the ES complex [1]: two-fold; Kd [3]: 1700 µM; fold increase in affinity (Kd) relative to pyrazole ([2]; spectral binding): 2 fold
8 | Competitive | – | 22 µM | c1ccc(-c2cc[nH]n2)cc1 [3-phenylpyrazole] | –
9 | – | – | 550 µM | c1ccc2[nH]cnc2c1 [benzimidazole] | –
